# Key:
# vaginal tissue = assay: Allen-Doisy test; format: in vivo
# [1] = system: estrogen receptors in the CNS; assay: Lordosis model (facilitation of female sexual behaviour); format: in vivo
# bone = assay: AOST BMD (bone mineral density); format: in vivo
# [2] = system: circulating levels of LH and FSH; assay: 4-week multiple dose study in ovariectomized female rats; format: in vivo, rat
# pregnant rats = assay: Embryofetal toxicity study in pregnant rats; format: in vivo, rat
# ovulation = assay: Ovulation inhibition in intact cycling female rats; format: in vivo
# endometrium = assay: 4-week phase I study, endometrial biopsies histopathology; format: in vivo; conditions: female human volunteers; biopsies on day 29; exposure via oral 10 mg daily Org 41621
Compound,Allen-Doisy (rat) MAD p.o. (vaginal tissue) [mg/kg.day],Lordosis (rat) MAD p.o. [1] [mg/kg.day],AOST BMD (rat) MAD p.o. (bone) [mg/kg.day],"suppression of circulating levels of LH and FSH ([2]; 4-week multiple dose, oral and subcutaneous application in gelatine/mannitol)","behaviour on vaginal tissue, cholesterol metabolism and bone (bone mineral density, circulating osteocalcin) ([2]; same series of studies)","minor defects, incidence of wavy ribs (pregnant rats; pregnant rats, oral gavage, 0.1 mg/kg)","body weight gain of the dams (pregnant rats; pregnant rats, oral gavage, 0.1 mg/kg/day up to and including 10 mg/kg/day)","effects (fetal defects) (pregnant rats; pregnant rats, oral gavage, 0.3 mg/kg, based on a total of 13 fetuses)","major defects (fetuses) (pregnant rats; pregnant rats, oral gavage, treated groups)","teratogenicity in the rat (pregnant rats; preliminary embryofetal development study, up to a dose of 0.3 mg/kg)",Ovulation Inhibition (rat) MAD p.o. (ovulation) [mg/kg.day],Histopathology scores of endometrial biopsies (endometrium),signs of hyperplasia (endometrium) (endometrium),"major fetal abnormalities (ribs, humerus and scapula) (pregnant rats; pregnant rats, oral gavage, 0.09 mg/kg)","major fetal abnormalities (ribs, humerus and scapula) (pregnant rats; pregnant rats, oral gavage, 0.15 mg/kg)"
"CCC[C@@H]1Cc2cc(O)ccc2[C@H]2CC[C@@]3(C)[C@@H](C[C@H]4CCC(=O)C[C@]43O)[C@H]12 [Compound 10, (7α,16β,17α)-3,17-dihydroxy-7-propyl-16,24-cyclo-19,21-dinorchola-1,3,5(10)-trien-22-one]",0.15,0.14,0.12,effectively suppress,behaves as an estrogen receptor agonist,4/153,significant reduction in body weight gain,No effects,No major defects,no evidence of teratogenicity,0.10,mostly atrophic or inactive endometrium with some subjects showing conversion to secretory (P-type) endometrium,no signs of hyperplasia,,
"C#C[C@]1(O)CC[C@H]2[C@@H]3CCc4cc(O)ccc4[C@H]3CC[C@@]21C [EE, Ethynyl-Estradiol, reference compound]",0.016,0.035,0.020,,,,,,,,0.022,,,,
"CCC[C@@H]1Cc2cc(O)ccc2[C@H]2CC[C@@]3(C)[C@@H](C[C@H]4CC[C@H](O)C[C@]43O)[C@H]12 [Org 41621, (7α,16β,17α,22β)-7-propyl-16,24-cyclo-19,21-dinorchola-1,3,5(10)-triene-3,17,22-triol, reference compound]",,,,,,,,,,,,,,3/273,11/216

# From EP2440567B1, “SUBSTITUTED 16,17-ANNELLATED STEROID COMPOUNDS FOR USE IN WOMEN'S HEALTHCARE” (priority 2009, dated 2010)
